According to patent US8623995B2, “Peptide conjugates and fluorescence detection methods for intracellular caspase assay” (Applied Biosystems, LLC, priority 2001, dated 2014):
Each block holds one compound with its values, some of them ahead of it. The star is where a group is joined. Cbz = O=C(OCc1ccccc1)*; CH2F = FC*

What was measured:
HeLa cells = assay: Intracellular caspase assay with peptide conjugate 9: apoptosis induction; assay type: cell-based, Human; conditions: peptide conjugate 9 (FIG. 13)
Experimental: (§1) One method for introducing the peptide conjugates into cells to induce apoptosis and measure caspase activity includes the following steps: • 1. […] The cells will adhere to well bottoms in 1 to 24 hours. Any number of different sample cells or any combination of cells, inhibitors or apoptosis inducers can be assayed. Typically 10,000 cells per well are plated in about 100 μl of tissue culture media. • 2. Add an apoptosis inducer, e.g. camptothecin or staurosporine, dissolved in media and/or solvent. Different concentrations can be used to study dose-response. • 3. Let the cells stand for about 24 hours at 37° C., depending on the inducer. • 4. […] Let stand for about 90 minutes at 37° C. • 5. Transfer plates to a fluorescent plate reading device, cell sorter, flow cytometer, laser imager, microscope, or other device and read the content of the wells.
(§2) A data spreadsheet assigns numerical values of fluorescence intensity and peak heights. The greyscale image has intensity content, like an autoradiogram. […] The cells are simply counted by a cell counting algorithm as either blue or red depending on the ratio of channel 2 to channel 1 fluorescence intensity, and independent of intensity values. The fraction of apoptotic cells is determined by identifying the apoptotic population in each well and dividing by the total number of cells detected. […]

Jurkat cells = assay: as above; assay type: cell-based, Human; conditions: peptide conjugate 9 (FIG. 13)
Experimental: as §1, §2

NT-2 cells = assay: Intracellular caspase assay on FMAT 8100 HTS System with peptide conjugate 9: apoptosis induction; assay type: cell-based, Human
Experimental: One method for introducing the peptide conjugates into cells to induce apoptosis and measure caspase activity includes the following steps: • 1. Plate the eukaryotic cells in RPMI 1640 media in the wells of a tissue culture-treated 96-well plate at 37° C. The cells will adhere to well bottoms in 1 to 24 hours. Any number of different sample cells or any combination of cells, inhibitors or apoptosis inducers can be assayed. Typically 10,000 cells per well are plated in about 100 μl of tissue culture media. • 2. Add an apoptosis inducer, e.g. camptothecin or staurosporine, dissolved in media and/or solvent. Different concentrations can be used to study dose-response. • 3. Let the cells stand for about 24 hours at 37° C., depending on the inducer. • 4. Add the peptide conjugate, dissolved in media and/or solvent in a range of 1 to 10 μM, e.g. 2.5 μM, to every well, including controls. Let stand for about 90 minutes at 37° C. • 5. Transfer plates to a fluorescent plate reading device, cell sorter, flow cytometer, laser imager, microscope, or other device and read the content of the wells.
A data spreadsheet assigns numerical values of fluorescence intensity and peak heights. The greyscale image has intensity content, like an autoradiogram. […] The cells are simply counted by a cell counting algorithm as either blue or red depending on the ratio of channel 2 to channel 1 fluorescence intensity, and independent of intensity values. The fraction of apoptotic cells is determined by identifying the apoptotic population in each well and dividing by the total number of cells detected. The ratio of red (channel 2) to blue (channel 1) inversely correlates to the apoptotic fraction. In other words:
[formula] […] Effects of introducing apoptosis inducers and caspase inhibitors to different cells under variable conditions can thus be measured by the mix-and-read protocols on the FMAT 8100 System. A dose response is determined when this fraction (% apoptotic) is plotted as a function of the concentration of camptothecin in the well (FIG. 11), and other apoptosis inducers (FIGS. 12 and 13). […]

caspase = molecular target: T1, caspase (Homo sapiens, UniProt P42574); assay: Intracellular caspase assay on FMAT 8100: caspase inhibitors on cleavage of peptide conjugate 9 in NT-2 cells; assay type: cell-based; conditions: inhibitor at 50 μM, NT-2 cells with CMP to induce apoptosis (FIG. 10)
T1 construct: endogenous in cells; host or cells: NT-2 cells
T1 sequence (P42574 29-175 limits assumed): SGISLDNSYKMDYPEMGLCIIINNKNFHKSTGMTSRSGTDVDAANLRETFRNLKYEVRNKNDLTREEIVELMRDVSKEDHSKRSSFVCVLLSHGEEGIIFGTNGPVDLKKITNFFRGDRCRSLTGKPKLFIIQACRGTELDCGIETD
T1 sequence (P42574 176-277 limits assumed): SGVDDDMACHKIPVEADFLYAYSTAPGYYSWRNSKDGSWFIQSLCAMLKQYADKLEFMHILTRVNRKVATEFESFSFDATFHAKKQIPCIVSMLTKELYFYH
Experimental: as §1
The plate was incubated at 37° C. for 90 minutes.

Compound: CN[C@@H]1C[C@H]2O[C@@](C)([C@@H]1OC)n1c3ccccc3c3c4c(c5c6ccccc6n2c5c31)C(=O)NC4 [staurosporine]
Threshold concentration above which fraction of apoptotic cells correlates with concentration (HeLa cells): ~0.5 µM
Threshold concentration above which fraction of apoptotic cells correlates with concentration (Jurkat cells): about 0.05 μM

Compound: COc1cccc2c1C(=O)c1c(O)c3c(c(O)c1C2=O)C[C@@](O)(C(=O)CO)C[C@@H]3O[C@H]1C[C@H](N)[C@H](O)[C@H](C)O1 [doxirubicin]
Concentration above which most of the cells were detected as apoptotic (NT-2 cells; peptide conjugate 9 (FIG. 12)): about 0.1 μM

Suppression of cleavage of peptide conjugate 9 (caspase): complete suppression
Compound: Cbz-Val-Ala-Asp-CH2F

Compound: CC[C@@]1(O)C(=O)OCc2c1cc1n(c2=O)Cc2cc3ccccc3nc2-1 [camptothecin]
Induction of apoptosis / caspase activity (donor dye emission, channel 1) (NT-2 cells; 500 nM, peptide conjugate 9 (FIG. 9)): caspase activity is evident
Dose response: fraction of apoptotic cells (NT-2 cells; 0.0001 to 10 μM, 24 hours, peptide conjugate 9 (FIG. 11)): fraction of apoptotic cells correlates with camptothecin concentration
